pKi: −log10 of the molar value.

The target in this test is Protein kinase C alpha type (Homo sapiens, UniProt P17252). As to the kind of experiment: Displacement of [20-3H]-phorbol 12,13-dibutyrate (PDBU) from protein kinase C alpha with phosphatidylserine.

As a reminder, the pKi is −log10 of the Ki, conventionally taken in molar units. The low end stands for a high Ki, the high end for a low Ki. With `CCCCCCCC(=O)OCCCC1(CO)CC(=CCC(C(C)C)C(C)C)C(=O)O1` (stereo unspecified), the negative-log Ki (pKi) is 5.84. The molecule `CCCCCCCCC(=O)OCCC1(CO)C/C(=C\CC(C(C)C)C(C)C)C(=O)O1` (stereo unspecified) had a negative logarithm of the Ki (pKi) of 6.34.

Turning to `CCCCCCCCCOC(=O)CC1(CO)C/C(=C\CC(C(C)C)C(C)C)C(=O)O1` (stereo unspecified), the pKi is 7.21. `CCCCCCCCC(=O)OCCC1(CO)C/C(=C/CC(C(C)C)C(C)C)C(=O)O1` (stereo unspecified) showed a pKi of 6.68. For `CCCCCCCC(=O)OCCCC1(CO)C/C(=C/CC(C(C)C)C(C)C)C(=O)O1` (stereo unspecified) the value was 6.13.

The molecule `CCCCCCCCCOC(=O)CC1(CO)C/C(=C/CC(C(C)C)C(C)C)C(=O)O1` (stereo unspecified) gave a negative logarithm of the Ki (pKi) of 7.25.

The values are drawn from ChEMBL document CHEMBL1137081, “Conformationally constrained analogues of diacylglycerol. 20. The search for an elusive binding site on protein kinase C through relocation of the carbonyl pharmacophore along the sn-1 side chain of 1,2-diacylglycerol lactones” (J Med Chem, 2004).
